Data as given in US6706663B2, “Herbicidal 3-heterocyclic substituted benzisothiazole and benzisoxazole compounds” (Wyeth, priority 2000, dated 2004).

Key:
[1] = test system: SETVI (Setaria viridis); experiment: Preemergence herbicidal evaluation; format: in vivo, (L.) Beau; details: rated 4-5 weeks after treatment
Summary of the method: (§1)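 Visual 0-9 rating versus untreated control, taken four to five weeks post-treatment, scoring stand, vigor, malformation, size, chlorosis and overall appearance. Compound applied as aqueous acetone spray to freshly seeded soil cups, then kept under standard greenhouse care.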

[2] = test system: ECHCG (Echinochloa crus-galli); experiment: Preemergence herbicidal evaluation; format: in vivo, (L.) Beau; details: rated 4-5 weeks after treatment
Summary of the method: as §1

[3] = test system: GLXMAW (Soybean, Williams); experiment: Postemergence herbicidal evaluation; format: in vivo, Glycine max, (L.) Merr. cv Williams
Summary of the method: (§2)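 Visual 0–9 injury scores versus control plants, covering stand, vigour, malformation, size, chlorosis and general appearance, taken four to five weeks post-spray and averaged over replicate tests. Plants were sprayed at roughly two weeks old and held on greenhouse benches.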

[4] = test system: CYPSE (Cyperus serotinus); experiment: Flooded paddy, preemergence weed control; format: in vivo, Rottb.; details: rated 3-4 weeks after treatment, 0-9 rating scale
Summary of the method: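 Herbicidal effect was scored visually on a 0–9 scale against an untreated control 3–4 weeks after treatment. Compounds were applied preemergence as 50/50 v/v aqueous/acetone mixtures into flood water (1.5–3 cm deep over silt loam), at roughly 0.0080 to 0.1250 kg/ha active ingredient.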

[5] = test system: TRZAWR (Wheat, Winter, cv Riband); experiment: Preemergence herbicidal evaluation; format: in vivo, Triticum aestivum; details: rated 4-5 weeks after treatment
Summary of the method: as §1

[6] = test system: GALAP (Galium aparine); experiment: Preemergence herbicidal evaluation; format: in vivo; details: rated 4-5 weeks after treatment
Summary of the method: as §1

[7] = test system: SETVI (Setaria viridis); experiment: Postemergence herbicidal evaluation; format: in vivo, (L.) Beau
Summary of the method: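 Visual injury score (0-9: stand, vigor, malformation, size, chlorosis, overall appearance vs untreated control) taken four to five weeks post-spray. Two-week-old seedlings received about 0.0040 to 1.000 kg/ha active compound in acetone/water with 0.5% TWEEN 20.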

[8] = test system: MOOVA (Monochoria vaginalis); experiment: Flooded paddy, preemergence weed control; format: in vivo, Presl.; details: rated 3-4 weeks after treatment, 0-9 rating scale
Summary of the method: (§3)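 Plants were established from seed or propagating organs in flooded silt loam, with the water surface held 1.5 to 3 cm above the soil for the entire experiment. Injury was assessed visually against a control and given a 0-9 score.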

[9] = test system: CHEAL (Chenopodium album); experiment: Preemergence herbicidal evaluation; format: in vivo, L.; details: rated 4-5 weeks after treatment
Summary of the method: as §1

[10] = test system: CASOB (Cassia obtusifolia); experiment: Preemergence herbicidal evaluation; format: in vivo, L.; details: rated 4-5 weeks after treatment
Summary of the method: as §1

[11] = test system: AMBEL (Ambrosia artemisifolia); experiment: Preemergence herbicidal evaluation; format: in vivo, L.; details: rated 4-5 weeks after treatment
Summary of the method: as §1

[12] = test system: ECHCG (Echinochloa crus-galli); experiment: Postemergence herbicidal evaluation; format: in vivo, (L.) Beau
Summary of the method: as §2

[13] = test system: ZEAMX (Corn, Field); experiment: Postemergence herbicidal evaluation; format: in vivo, Zea mays, L.
Summary of the method: as §2

[14] = test system: TRZAWR (Wheat, Winter, cv Riband); experiment: Postemergence herbicidal evaluation; format: in vivo, Triticum aestivum
Summary of the method: as §2

[15] = test system: ORYSAT (Rice, Tebonnet); experiment: Postemergence herbicidal evaluation; format: in vivo, Oryza sativa, (L.) Tebonnet
Summary of the method: as §2

[16] = test system: IPOHE (Ipomoea hederacea); experiment: Postemergence herbicidal evaluation; format: in vivo, (L.) Jacq.
Summary of the method: as §2

[17] = test system: ORYSAT (Rice, Tebonnet); experiment: Preemergence herbicidal evaluation; format: in vivo, Oryza sativa, (L.) Tebonnet; details: rated 4-5 weeks after treatment
[18] = test system: ABUTH (Abutilon theophrasti); experiment: Preemergence herbicidal evaluation; format: in vivo, Medic.; details: rated 4-5 weeks after treatment
[19] = test system: ECHORC (Echinochloa oryzoides); experiment: Flooded paddy, preemergence weed control; format: in vivo, Echinochloa oryzoides (Ard.) Fritsch.; details: rated 3-4 weeks after treatment, 0-9 rating scale
Summary of the method: as §3

Cn1c(C(F)(F)F)cc(=O)n(-c2ccc3snc(C4OCCO4)c3c2)c1=O [Compound 45, 3-[3-(1,3-dioxolan-2-yl)-1,2-benzisothiazol-5-yl]-1-methyl-6-(trifluoromethyl)uracil]
Preemergence herbicidal rating SETVI ([1]; Rate 0.0620 kg/ha): 9.0 | Preemergence herbicidal rating SETVI ([1]; Rate 0.1250 kg/ha): 9.0 | Preemergence herbicidal rating SETVI ([1]; Rate 0.2500 kg/ha): 9.0 | Preemergence herbicidal rating ECHCG ([2]; Rate 0.0620 kg/ha): 9.0 | Preemergence herbicidal rating ECHCG ([2]; Rate 0.1250 kg/ha): 9.0 | Preemergence herbicidal rating ECHCG ([2]; Rate 0.2500 kg/ha): 9.0 | Postemergence herbicidal rating, GLXMAW ([3]; rate 0.0320 kg/ha): 8.8 | Postemergence herbicidal rating, GLXMAW ([3]; rate 0.0620 kg/ha): 8.8 | herbicidal rating, CYPSE ([4]; rate 0.0080 kg/ha): 9.0 | herbicidal rating, CYPSE ([4]; rate 0.0320 kg/ha): 9.0 | herbicidal rating, CYPSE ([4]; rate 0.1250 kg/ha): 9.0 | Preemergence herbicidal rating TRZAWR ([5]; Rate 0.0620 kg/ha): 9.0 | Preemergence herbicidal rating TRZAWR ([5]; Rate 0.1250 kg/ha): 9.0 | Preemergence herbicidal rating TRZAWR ([5]; Rate 0.2500 kg/ha): 9.0 | Preemergence herbicidal rating GALAP ([6]; Rate 0.0620 kg/ha): 7.0 | Preemergence herbicidal rating GALAP ([6]; Rate 0.1250 kg/ha): 9.0 | Preemergence herbicidal rating GALAP ([6]; Rate 0.2500 kg/ha): 9.0 | Postemergence herbicidal rating, SETVI ([7]; rate 0.0320 kg/ha): 6.3 | Postemergence herbicidal rating, SETVI ([7]; rate 0.0620 kg/ha): 9.0 | herbicidal rating, MOOVA ([8]; rate 0.0080 kg/ha): 4.5 | herbicidal rating, MOOVA ([8]; rate 0.0320 kg/ha): 9.0 | herbicidal rating, MOOVA ([8]; rate 0.1250 kg/ha): 9.0 | Preemergence herbicidal rating CHEAL ([9]; Rate 0.0620 kg/ha): 9.0 | Preemergence herbicidal rating CHEAL ([9]; Rate 0.1250 kg/ha): 9.0 | Preemergence herbicidal rating CHEAL ([9]; Rate 0.2500 kg/ha): 9.0 | Preemergence herbicidal rating CASOB ([10]; Rate 0.0620 kg/ha): 8.7 | Preemergence herbicidal rating CASOB ([10]; Rate 0.1250 kg/ha): 9.0 | Preemergence herbicidal rating CASOB ([10]; Rate 0.2500 kg/ha): 9.0 | Preemergence herbicidal rating AMBEL ([11]; Rate 0.0620 kg/ha): 9.0 | Preemergence herbicidal rating AMBEL ([11]; Rate 0.1250 kg/ha): 9.0 | Preemergence herbicidal rating AMBEL ([11]; Rate 0.2500 kg/ha): 9.0 | Postemergence herbicidal rating, ECHCG ([12]; rate 0.0320 kg/ha): 2.8 | Postemergence herbicidal rating, ECHCG ([12]; rate 0.0620 kg/ha): 4.0 | Postemergence herbicidal rating, ZEAMX ([13]; rate 0.0320 kg/ha): 5.5 | Postemergence herbicidal rating, ZEAMX ([13]; rate 0.0620 kg/ha): 6.0 | Postemergence herbicidal rating, TRZAWR ([14]; rate 0.0320 kg/ha): 4.4 | Postemergence herbicidal rating, TRZAWR ([14]; rate 0.0620 kg/ha): 5.0 | Postemergence herbicidal rating, ORYSAT ([15]; rate 0.0320 kg/ha): 4.3 | Postemergence herbicidal rating, ORYSAT ([15]; rate 0.0620 kg/ha): 5.2 | Postemergence herbicidal rating, IPOHE ([16]; rate 0.0320 kg/ha): 9.0 | Postemergence herbicidal rating, IPOHE ([16]; rate 0.0620 kg/ha): 9.0 | Preemergence herbicidal rating ORYSAT ([17]; Rate 0.0620 kg/ha): 8.7 | Preemergence herbicidal rating ORYSAT ([17]; Rate 0.1250 kg/ha): 9.0 | Preemergence herbicidal rating ORYSAT ([17]; Rate 0.2500 kg/ha): 9.0 | Preemergence herbicidal rating ABUTH ([18]; Rate 0.0620 kg/ha): 9.0 | Preemergence herbicidal rating ABUTH ([18]; Rate 0.1250 kg/ha): 9.0 | Preemergence herbicidal rating ABUTH ([18]; Rate 0.2500 kg/ha): 9.0 | herbicidal rating, ECHORC ([19]; rate 0.0080 kg/ha): 3.5 | herbicidal rating, ECHORC ([19]; rate 0.0320 kg/ha): 7.3 | herbicidal rating, ECHORC ([19]; rate 0.1250 kg/ha): 9.0

Cc1cccnc1-c1nsc2cc(F)c(N3C(=O)C4=C(CCCC4)C3=O)cc12 [Compound 46, N-[6-fluoro-3-(3-methyl-2-pyridyl)-1,2-benzisothiazol-5-yl]-1-cyclohexene-1,2-dicarboximide]
Preemergence herbicidal rating SETVI ([1]; Rate 0.0620 kg/ha): 9.0 | Preemergence herbicidal rating SETVI ([1]; Rate 0.1250 kg/ha): 9.0 | Preemergence herbicidal rating SETVI ([1]; Rate 0.2500 kg/ha): 9.0 | Preemergence herbicidal rating ECHCG ([2]; Rate 0.0620 kg/ha): 1.0 | Preemergence herbicidal rating ECHCG ([2]; Rate 0.1250 kg/ha): 5.0 | Preemergence herbicidal rating ECHCG ([2]; Rate 0.2500 kg/ha): 8.0 | Postemergence herbicidal rating, GLXMAW ([3]; rate 0.0320 kg/ha): 6.0 | Postemergence herbicidal rating, GLXMAW ([3]; rate 0.0620 kg/ha): 7.5 | Postemergence herbicidal rating, GLXMAW ([3]; rate 0.1250 kg/ha): 7.5 | herbicidal rating, CYPSE ([4]; rate 0.1250 kg/ha): 0.0 | Preemergence herbicidal rating TRZAWR ([5]; Rate 0.0620 kg/ha): 1.0 | Preemergence herbicidal rating TRZAWR ([5]; Rate 0.1250 kg/ha): 0.0 | Preemergence herbicidal rating TRZAWR ([5]; Rate 0.2500 kg/ha): 2.0 | Preemergence herbicidal rating GALAP ([6]; Rate 0.1250 kg/ha): 0.0 | Preemergence herbicidal rating GALAP ([6]; Rate 0.2500 kg/ha): 0.0 | Postemergence herbicidal rating, SETVI ([7]; rate 0.0320 kg/ha): 3.0 | Postemergence herbicidal rating, SETVI ([7]; rate 0.0620 kg/ha): 4.0 | Postemergence herbicidal rating, SETVI ([7]; rate 0.1250 kg/ha): 9.0 | herbicidal rating, MOOVA ([8]; rate 0.0320 kg/ha): 7.0 | herbicidal rating, MOOVA ([8]; rate 0.1250 kg/ha): 7.0 | Preemergence herbicidal rating CHEAL ([9]; Rate 0.0620 kg/ha): 7.0 | Preemergence herbicidal rating CHEAL ([9]; Rate 0.1250 kg/ha): 9.0 | Preemergence herbicidal rating CHEAL ([9]; Rate 0.2500 kg/ha): 9.0 | Preemergence herbicidal rating CASOB ([10]; Rate 0.0620 kg/ha): 1.0 | Preemergence herbicidal rating CASOB ([10]; Rate 0.1250 kg/ha): 1.0 | Preemergence herbicidal rating CASOB ([10]; Rate 0.2500 kg/ha): 3.0 | Preemergence herbicidal rating AMBEL ([11]; Rate 0.0620 kg/ha): 1.0 | Preemergence herbicidal rating AMBEL ([11]; Rate 0.1250 kg/ha): 6.0 | Preemergence herbicidal rating AMBEL ([11]; Rate 0.2500 kg/ha): 9.0 | Postemergence herbicidal rating, ECHCG ([12]; rate 0.0320 kg/ha): 2.0 | Postemergence herbicidal rating, ECHCG ([12]; rate 0.0620 kg/ha): 2.0 | Postemergence herbicidal rating, ECHCG ([12]; rate 0.1250 kg/ha): 4.0 | Postemergence herbicidal rating, ZEAMX ([13]; rate 0.0320 kg/ha): 4.5 | Postemergence herbicidal rating, ZEAMX ([13]; rate 0.0620 kg/ha): 4.5 | Postemergence herbicidal rating, ZEAMX ([13]; rate 0.1250 kg/ha): 5.5 | Postemergence herbicidal rating, TRZAWR ([14]; rate 0.0320 kg/ha): 4.0 | Postemergence herbicidal rating, TRZAWR ([14]; rate 0.0620 kg/ha): 4.5 | Postemergence herbicidal rating, TRZAWR ([14]; rate 0.1250 kg/ha): 5.0 | Postemergence herbicidal rating, ORYSAT ([15]; rate 0.0320 kg/ha): 4.0 | Postemergence herbicidal rating, ORYSAT ([15]; rate 0.0620 kg/ha): 3.5 | Postemergence herbicidal rating, ORYSAT ([15]; rate 0.1250 kg/ha): 4.5 | Postemergence herbicidal rating, IPOHE ([16]; rate 0.0320 kg/ha): 9.0 | Postemergence herbicidal rating, IPOHE ([16]; rate 0.0620 kg/ha): 9.0 | Postemergence herbicidal rating, IPOHE ([16]; rate 0.1250 kg/ha): 9.0 | Preemergence herbicidal rating ORYSAT ([17]; Rate 0.0620 kg/ha): 1.0 | Preemergence herbicidal rating ORYSAT ([17]; Rate 0.1250 kg/ha): 0.0 | Preemergence herbicidal rating ORYSAT ([17]; Rate 0.2500 kg/ha): 4.0 | Preemergence herbicidal rating ABUTH ([18]; Rate 0.0620 kg/ha): 5.0 | Preemergence herbicidal rating ABUTH ([18]; Rate 0.1250 kg/ha): 4.0 | Preemergence herbicidal rating ABUTH ([18]; Rate 0.2500 kg/ha): 9.0 | herbicidal rating, ECHORC ([19]; rate 0.0320 kg/ha): 5.0 | herbicidal rating, ECHORC ([19]; rate 0.1250 kg/ha): 7.0
